Results: publication PMC11864979, “First-in-class ultralong-target-residence-time p38α inhibitors as a mitosis-targeted therapy for colorectal cancer” (Nature Cancer, 2025)
Read-outs that look alike come from different tables or passages of the source.

How the values were obtained:
Assay in all cases: selectivity profiling in a panel of 340 wild-type kinases (Reaction Biology Europe)
Format in all cases: binding
340 wild-type kinases [1] = biological target: T1, 340 wild-type kinases (Homo sapiens, UniProt O00444)
T1 construct: purchased Reaction Biology Europe
T1 sequence (O00444 1-970): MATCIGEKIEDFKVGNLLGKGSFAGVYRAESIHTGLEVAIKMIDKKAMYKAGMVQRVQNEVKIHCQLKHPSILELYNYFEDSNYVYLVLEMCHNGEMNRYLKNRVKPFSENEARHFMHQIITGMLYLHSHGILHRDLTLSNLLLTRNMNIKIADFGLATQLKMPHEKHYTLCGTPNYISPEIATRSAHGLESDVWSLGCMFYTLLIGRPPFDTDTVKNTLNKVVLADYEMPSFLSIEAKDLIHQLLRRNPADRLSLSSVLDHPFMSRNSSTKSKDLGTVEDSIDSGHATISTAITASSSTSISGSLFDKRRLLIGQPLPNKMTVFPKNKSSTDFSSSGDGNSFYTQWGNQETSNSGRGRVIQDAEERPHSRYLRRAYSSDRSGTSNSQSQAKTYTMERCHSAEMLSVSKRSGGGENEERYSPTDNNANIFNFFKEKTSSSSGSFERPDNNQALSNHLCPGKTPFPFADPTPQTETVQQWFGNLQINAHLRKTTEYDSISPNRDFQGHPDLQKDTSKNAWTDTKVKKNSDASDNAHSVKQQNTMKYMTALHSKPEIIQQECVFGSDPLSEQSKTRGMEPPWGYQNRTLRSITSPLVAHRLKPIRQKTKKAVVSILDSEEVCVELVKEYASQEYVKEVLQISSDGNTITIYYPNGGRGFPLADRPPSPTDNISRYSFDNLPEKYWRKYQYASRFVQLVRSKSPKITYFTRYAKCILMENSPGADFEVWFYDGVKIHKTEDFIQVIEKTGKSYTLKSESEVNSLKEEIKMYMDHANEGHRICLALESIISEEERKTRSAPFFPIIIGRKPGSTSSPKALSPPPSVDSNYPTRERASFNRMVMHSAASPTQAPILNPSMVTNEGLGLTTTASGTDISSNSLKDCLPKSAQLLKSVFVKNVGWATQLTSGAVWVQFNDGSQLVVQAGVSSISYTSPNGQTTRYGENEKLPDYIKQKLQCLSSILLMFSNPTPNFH

340 wild-type kinases [2] = biological target: T2, 340 wild-type kinases (Homo sapiens, UniProt P16234)
T2 construct: purchased Reaction Biology Europe

340 wild-type kinases [3] = biological target: T3, 340 wild-type kinases (Homo sapiens, UniProt P41279)
T3 construct: purchased Reaction Biology Europe

340 wild-type kinases [4] = biological target: T4, 340 wild-type kinases (Homo sapiens, UniProt P45985)
T4 construct: purchased Reaction Biology Europe
T4 sequence (P45985 1-399): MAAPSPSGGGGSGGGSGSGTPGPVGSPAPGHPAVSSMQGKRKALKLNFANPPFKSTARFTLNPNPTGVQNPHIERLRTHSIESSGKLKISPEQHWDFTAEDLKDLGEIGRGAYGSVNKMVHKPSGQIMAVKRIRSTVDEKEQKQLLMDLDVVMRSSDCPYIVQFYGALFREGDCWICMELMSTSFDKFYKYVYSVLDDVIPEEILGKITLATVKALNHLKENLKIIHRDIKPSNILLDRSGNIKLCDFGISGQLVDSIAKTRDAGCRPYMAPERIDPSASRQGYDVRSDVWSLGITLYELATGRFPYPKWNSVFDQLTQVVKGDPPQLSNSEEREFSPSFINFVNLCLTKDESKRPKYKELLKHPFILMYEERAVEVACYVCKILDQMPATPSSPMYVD

340 wild-type kinases [5] = biological target: T5, 340 wild-type kinases (Homo sapiens, UniProt P48730)
T5 construct: purchased Reaction Biology Europe

340 wild-type kinases [6] = biological target: T6, 340 wild-type kinases (Homo sapiens, UniProt Q15131)
T6 construct: purchased Reaction Biology Europe

340 wild-type kinases [7] = biological target: T7, 340 wild-type kinases (Homo sapiens, UniProt Q9UKI8)
T7 construct: purchased Reaction Biology Europe
T7 sequence (Q9UKI8 1-766): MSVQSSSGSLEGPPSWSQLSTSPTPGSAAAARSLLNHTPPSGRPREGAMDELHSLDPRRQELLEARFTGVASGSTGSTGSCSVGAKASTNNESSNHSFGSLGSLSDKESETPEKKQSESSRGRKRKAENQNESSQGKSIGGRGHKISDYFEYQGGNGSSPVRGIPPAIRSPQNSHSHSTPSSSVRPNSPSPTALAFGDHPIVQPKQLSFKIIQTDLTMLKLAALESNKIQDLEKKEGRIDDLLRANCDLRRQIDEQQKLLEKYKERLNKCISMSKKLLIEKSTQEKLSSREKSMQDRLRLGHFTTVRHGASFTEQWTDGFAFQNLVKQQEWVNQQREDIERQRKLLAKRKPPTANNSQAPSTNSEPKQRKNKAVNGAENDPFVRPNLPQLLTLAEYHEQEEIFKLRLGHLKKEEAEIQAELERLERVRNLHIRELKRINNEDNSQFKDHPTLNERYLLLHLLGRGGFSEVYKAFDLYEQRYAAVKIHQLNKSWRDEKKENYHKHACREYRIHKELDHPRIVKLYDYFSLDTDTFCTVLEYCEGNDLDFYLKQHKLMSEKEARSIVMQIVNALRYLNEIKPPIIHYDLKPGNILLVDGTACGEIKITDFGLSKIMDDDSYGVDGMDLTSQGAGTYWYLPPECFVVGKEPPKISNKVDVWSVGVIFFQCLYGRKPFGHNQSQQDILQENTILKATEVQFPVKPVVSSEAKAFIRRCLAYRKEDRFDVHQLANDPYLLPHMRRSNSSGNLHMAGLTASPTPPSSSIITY

T5 sequence (P48730 whole entry): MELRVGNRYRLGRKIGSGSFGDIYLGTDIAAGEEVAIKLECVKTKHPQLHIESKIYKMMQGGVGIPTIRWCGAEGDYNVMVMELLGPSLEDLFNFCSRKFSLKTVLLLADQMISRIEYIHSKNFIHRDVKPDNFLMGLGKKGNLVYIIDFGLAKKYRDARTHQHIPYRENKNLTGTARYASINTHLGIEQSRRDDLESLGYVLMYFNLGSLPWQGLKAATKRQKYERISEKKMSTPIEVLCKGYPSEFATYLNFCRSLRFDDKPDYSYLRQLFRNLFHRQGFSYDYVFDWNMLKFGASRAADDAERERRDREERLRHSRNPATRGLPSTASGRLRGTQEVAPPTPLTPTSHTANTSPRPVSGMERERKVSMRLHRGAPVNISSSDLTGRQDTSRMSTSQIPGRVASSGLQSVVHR
T2 sequence (P16234 24-1089): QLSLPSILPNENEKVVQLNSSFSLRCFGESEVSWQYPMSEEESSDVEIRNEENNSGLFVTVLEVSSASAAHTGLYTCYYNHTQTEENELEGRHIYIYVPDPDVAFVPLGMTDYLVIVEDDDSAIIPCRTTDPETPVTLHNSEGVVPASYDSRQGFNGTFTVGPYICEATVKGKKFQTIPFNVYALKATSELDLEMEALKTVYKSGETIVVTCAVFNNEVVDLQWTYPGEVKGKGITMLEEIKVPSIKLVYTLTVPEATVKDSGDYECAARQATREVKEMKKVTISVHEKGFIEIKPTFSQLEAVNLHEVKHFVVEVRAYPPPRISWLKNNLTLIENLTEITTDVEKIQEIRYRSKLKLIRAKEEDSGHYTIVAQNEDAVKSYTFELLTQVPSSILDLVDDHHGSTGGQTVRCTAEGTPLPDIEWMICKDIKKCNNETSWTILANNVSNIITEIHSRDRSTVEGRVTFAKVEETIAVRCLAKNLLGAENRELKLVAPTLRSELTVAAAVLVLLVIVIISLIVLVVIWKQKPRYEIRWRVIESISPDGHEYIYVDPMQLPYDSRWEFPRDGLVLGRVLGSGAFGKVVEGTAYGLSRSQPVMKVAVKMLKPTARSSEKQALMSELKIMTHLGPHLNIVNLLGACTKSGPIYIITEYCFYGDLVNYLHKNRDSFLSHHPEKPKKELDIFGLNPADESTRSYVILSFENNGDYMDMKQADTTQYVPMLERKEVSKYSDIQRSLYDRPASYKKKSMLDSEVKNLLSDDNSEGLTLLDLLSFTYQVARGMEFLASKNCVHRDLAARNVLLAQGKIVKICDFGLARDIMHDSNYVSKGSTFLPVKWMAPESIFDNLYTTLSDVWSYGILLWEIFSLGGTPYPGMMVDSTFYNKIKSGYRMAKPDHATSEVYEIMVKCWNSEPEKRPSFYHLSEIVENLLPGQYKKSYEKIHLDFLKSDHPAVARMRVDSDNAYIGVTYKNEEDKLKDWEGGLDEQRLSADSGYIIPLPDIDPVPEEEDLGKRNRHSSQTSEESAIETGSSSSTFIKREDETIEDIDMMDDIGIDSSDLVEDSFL
T6 sequence (Q15131 whole entry): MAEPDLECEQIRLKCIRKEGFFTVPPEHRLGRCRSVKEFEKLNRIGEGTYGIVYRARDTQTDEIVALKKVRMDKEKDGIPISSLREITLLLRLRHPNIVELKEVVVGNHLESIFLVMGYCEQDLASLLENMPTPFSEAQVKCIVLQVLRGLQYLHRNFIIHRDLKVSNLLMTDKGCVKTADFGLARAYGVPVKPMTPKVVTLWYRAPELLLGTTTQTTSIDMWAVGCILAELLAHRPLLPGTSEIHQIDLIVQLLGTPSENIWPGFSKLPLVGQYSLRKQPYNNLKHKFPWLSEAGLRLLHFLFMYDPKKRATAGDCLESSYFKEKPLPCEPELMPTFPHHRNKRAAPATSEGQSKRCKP
T3 sequence (P41279 whole entry): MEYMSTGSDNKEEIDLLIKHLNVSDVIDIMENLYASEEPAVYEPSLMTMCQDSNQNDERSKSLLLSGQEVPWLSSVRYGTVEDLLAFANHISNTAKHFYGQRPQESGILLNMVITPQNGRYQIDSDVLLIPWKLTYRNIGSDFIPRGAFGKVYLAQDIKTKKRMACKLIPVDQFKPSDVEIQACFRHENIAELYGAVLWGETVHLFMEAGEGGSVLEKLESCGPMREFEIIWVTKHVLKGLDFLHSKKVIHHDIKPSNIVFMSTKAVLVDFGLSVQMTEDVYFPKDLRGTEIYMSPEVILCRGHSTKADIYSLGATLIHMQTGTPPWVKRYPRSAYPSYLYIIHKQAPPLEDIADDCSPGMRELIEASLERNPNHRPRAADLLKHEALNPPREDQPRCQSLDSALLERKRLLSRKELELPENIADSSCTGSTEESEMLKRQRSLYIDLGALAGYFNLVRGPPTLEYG

## CNC(=O)c1ccc2c(c1)C(=O)c1ccc(Nc3ccc(F)c(NC(=O)C4CC4)c3)cc1CC2 [Compound 2015]
340 wild-type kinases [1]; 0.2 µM 2015, read-out: SAK residual activity
  remaining activity at 0.2 µM: 103%
340 wild-type kinases [1]; 1 µM 2015, read-out: SAK residual activity
  remaining activity at 1 µM: 104%
340 wild-type kinases [1]; SAK, 0.2 µM, read-out: residual activity
  remaining activity at 0.2 µM: 103%
340 wild-type kinases [1]; SAK, 1 µM, read-out: residual activity
  remaining activity at 1 µM: 104%
340 wild-type kinases [2]; 0.2 µM 2015, read-out: PDGFRalpha residual activity
  remaining activity at 0.2 µM: 102%
340 wild-type kinases [2]; 1 µM 2015, read-out: PDGFRalpha residual activity
  remaining activity at 1 µM: 95.4%
340 wild-type kinases [2]; PDGFRalpha, 0.2 µM, read-out: residual activity
  remaining activity at 0.2 µM: 102%
340 wild-type kinases [2]; PDGFRalpha, 1 µM, read-out: residual activity
  remaining activity at 1 µM: 95.4%
340 wild-type kinases [3]; 0.2 µM 2015, read-out: COT residual activity
  remaining activity at 0.2 µM: 98.6%
340 wild-type kinases [3]; 1 µM 2015, read-out: COT residual activity
  remaining activity at 1 µM: 97.4%
340 wild-type kinases [3]; COT, 0.2 µM, read-out: residual activity
  remaining activity at 0.2 µM: 98.6%
340 wild-type kinases [3]; COT, 1 µM, read-out: residual activity
  remaining activity at 1 µM: 97.4%
340 wild-type kinases [4]; 0.2 µM 2015, read-out: MKK4 residual activity
  remaining activity at 0.2 µM: 81.9%
340 wild-type kinases [4]; 1 µM 2015, read-out: MKK4 residual activity
  remaining activity at 1 µM: 91.3%
340 wild-type kinases [4]; MKK4, 0.2 µM, read-out: residual activity
  remaining activity at 0.2 µM: 81.9%
340 wild-type kinases [4]; MKK4, 1 µM, read-out: residual activity
  remaining activity at 1 µM: 91.3%
340 wild-type kinases [5]; 0.2 µM 2015, read-out: CK1delta residual activity
  remaining activity at 0.2 µM: 117%
340 wild-type kinases [5]; 1 µM 2015, read-out: CK1delta residual activity
  remaining activity at 1 µM: 111%
340 wild-type kinases [5]; CK1delta, 0.2 µM, read-out: residual activity
  remaining activity at 0.2 µM: 117%
340 wild-type kinases [5]; CK1delta, 1 µM, read-out: residual activity
  remaining activity at 1 µM: 111%
340 wild-type kinases [6]; 0.2 µM 2015, read-out: CDK10/CycQ residual activity
  remaining activity at 0.2 µM: 108%
340 wild-type kinases [6]; 1 µM 2015, read-out: CDK10/CycQ residual activity
  remaining activity at 1 µM: 97.1%
340 wild-type kinases [6]; CDK10/CycQ, 0.2 µM, read-out: residual activity
  remaining activity at 0.2 µM: 108%
340 wild-type kinases [6]; CDK10/CycQ, 1 µM, read-out: residual activity
  remaining activity at 1 µM: 97.1%
340 wild-type kinases [7]; 0.2 µM 2015, read-out: TLK1 residual activity
  remaining activity at 0.2 µM: 122%
340 wild-type kinases [7]; 1 µM 2015, read-out: TLK1 residual activity
  remaining activity at 1 µM: 105%
340 wild-type kinases [7]; TLK1, 0.2 µM, read-out: residual activity
  remaining activity at 0.2 µM: 122%
340 wild-type kinases [7]; TLK1, 1 µM, read-out: residual activity
  remaining activity at 1 µM: 105%
